Results from publication PMC5625810, “Chiglitazar Preferentially Regulates Gene Expression via Configuration-Restricted Binding and Phosphorylation Inhibition of PPARγ” (PPAR Research, 2017).

Biological target: T1, PPARγ (Homo sapiens, UniProt P37231)
T1 construct: gene PPARG
T1 sequence (P37231 231-505 limits assumed): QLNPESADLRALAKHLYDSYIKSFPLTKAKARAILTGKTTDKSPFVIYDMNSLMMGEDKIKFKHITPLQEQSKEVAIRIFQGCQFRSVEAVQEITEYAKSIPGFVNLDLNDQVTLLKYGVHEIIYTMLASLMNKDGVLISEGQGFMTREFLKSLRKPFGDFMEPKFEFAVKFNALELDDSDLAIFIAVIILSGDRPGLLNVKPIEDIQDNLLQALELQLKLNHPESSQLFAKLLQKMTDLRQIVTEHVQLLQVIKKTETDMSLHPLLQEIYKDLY
Test: AlphaScreen cofactor peptide recruitment on purified LBD ([…]); cell reporter AC50 […] separately
Format: biochemical

With `CN(CCOc1ccc(CC2SC(=O)NC2=O)cc1)c1ccccn1` (stereo not shown) [Ros, rosiglitazone] the “AlphaScreen cofactor peptide recruitment on purified LBD (2 μM); cell reporter A” value was “The inhibition was partially and differentially restored upon additions of the three ligands”.
